What was measured:
TGFBR1 = target: T1, TGFBR1 (Homo sapiens, UniProt P36897); test: Kinase activity assay (HTRF or ADP-Glo); type: biochemical
T1 sequence (P36897 34-503): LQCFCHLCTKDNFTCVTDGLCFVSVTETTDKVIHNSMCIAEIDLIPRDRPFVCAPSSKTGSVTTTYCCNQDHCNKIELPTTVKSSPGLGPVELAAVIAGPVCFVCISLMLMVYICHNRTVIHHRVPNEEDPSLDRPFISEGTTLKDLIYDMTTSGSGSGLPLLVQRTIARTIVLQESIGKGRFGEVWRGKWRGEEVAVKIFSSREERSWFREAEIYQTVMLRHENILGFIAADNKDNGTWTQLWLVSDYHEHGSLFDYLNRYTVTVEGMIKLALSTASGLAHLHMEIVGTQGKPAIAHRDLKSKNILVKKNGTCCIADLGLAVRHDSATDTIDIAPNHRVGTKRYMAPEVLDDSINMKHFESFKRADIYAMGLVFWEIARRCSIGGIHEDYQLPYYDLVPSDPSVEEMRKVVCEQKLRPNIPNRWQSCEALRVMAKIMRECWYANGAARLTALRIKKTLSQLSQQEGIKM
Method: A total of 330 kinase candidates (15-50 nM, 2.5 µL) were mixed with compound II-1 (2.5 mM, 25 nL, prepared in DMSO) and incubated at 25 °C for 10 minutes. Then, a mixture of kinase peptide substrate (0.2 mg/mL; supplier: GenScript) and ATP (10-60 µM; supplier: Promega; product number: V915B) was added (total 2.5 µL, prepared in assay buffer), and the reaction was carried out at 25 °C for 60-120 minutes. Finally, the reaction products were quantified using HTRF1 or ADP-Glo2 methods. During the kinase activity assay, the consumption of each substrate was kept below 10%, and each kinase assay was performed in duplicate.

H9 = test: CCK-8 cell viability assay; type: cell-based
Method: (§1) Tumor cells OVCAR3 (ovarian cancer), HeLa ([…]), U251 (glioma), H9 cells, and non-tumor HEK293 cells were cultured in DMEM/F12 medium supplemented with 10% FBS and 1% P/S. When cells reached 70% confluency, they were digested with 0.25% Trypsin at 37°C for 2-3 minutes, and digestion was stopped with DMEM/F12 medium. Cell suspensions were collected in 15 mL centrifuge tubes, centrifuged at 1000 rpm for 5 minutes, the supernatant was discarded, and cells were resuspended in DMEM/F12 medium with 10% FBS and 1% P/S. Cells were counted using a hemocytometer, and based on the counts, they were resuspended to the desired concentration. Tumor cells were seeded in 96-well plates at 1×10^4 cells per well, 100 µL per well. From day 1 to day 7 after seeding, cells were treated with compound II-1 at 0 µM, 10 µM, 30 µM, and 50 µM (the pyrazolecarbonyl piperazinone compounds were diluted to 10 µM, 30 µM, and 50 µM with DMEM + 10% FBS). Each concentration was tested in triplicate wells.
(§2) Cell viability on days 1, 3, 5, and 7 was determined using the CCK-8 cell proliferation/cytotoxicity assay kit (Vazyme, A311-02) by measuring absorbance at OD450 nm, with wells containing only medium and CCK-8 solution as blank controls. Each concentration was measured in triplicate.
(§3) Calculation of cell survival rate: For the same cell type at the same time point, the absorbance of cells not treated with compound II-1 was set as 100% baseline. For cells treated with different concentrations, the absorbance was compared with the control group (CK) to calculate the relative proportion. For example, the survival rate of H9 cells on day 4 treated with 30 µM of the small molecule compound was calculated as follows: [OD(D4)30μMiPS]/[OD(D4)0μMH9] × 100% [formula] Table 2. Cell survival rates of various cell types after treatment with different concentrations of compound II-1 measured by CCK-8 assay

HEK293 = test: CCK-8 cell viability assay; type: cell-based
Method: as §1, §2, §3

Hela = test: CCK-8 cell viability assay; type: cell-based
Method: as §1, §2, §3

OVCAR3 = test: CCK-8 cell viability assay; type: cell-based
Method: as §1, §2, §3

U251 = test: CCK-8 cell viability assay; type: cell-based
Method: as §1, §2, §3

`O=C1CN(C(=O)c2n[nH]c3c2CCC3)[C@H]2CCCC[C@@H]2N1` [II-1, (4aS,8aS)-4-(1,4,5,6-tetrahydrocyclopenta[c]pyrazole-3-carbonyl)octahydroquinoxalin-2(1H)-one] was tested. Which “inhibition of TGFBR1 kinase” value (TGFBR1; different concentrations, up to 12.5 µM, threefold serial dilution, Figure 1B) did it give?
Its value is “no inhibition”.

And the “inhibition of kinase activity of TGFBR1” value (TGFBR1; same concentration as in the 330 kinase screen)?
The value was “did not inhibit”.

What about the Cell survival rate (H9; H9, II-1 10 µM, Day 1 Treatment) of the same molecule?
Its Cell survival rate is 90.37%.

What about the Cell survival rate (H9; H9, II-1 10 µM, Day 3 Treatment) of the same molecule?
Its Cell survival rate is 92.91%.

And the Cell survival rate (H9; H9, II-1 10 µM, Day 5 Treatment)?
The Cell survival rate was 84.84%.

What about the Cell survival rate (H9; H9, II-1 10 µM, Day 7 Treatment) of the same molecule?
Its Cell survival rate is 83.47%.

What about the Cell survival rate (H9; H9, II-1 30 µM, Day 1 Treatment) of the same molecule?
The Cell survival rate was 84.96%.

And the Cell survival rate (H9; H9, II-1 30 µM, Day 3 Treatment)?
The Cell survival rate was 86.01%.

And the Cell survival rate (H9; H9, II-1 30 µM, Day 5 Treatment)?
Its Cell survival rate is 80.25%.

What about the Cell survival rate (H9; H9, II-1 30 µM, Day 7 Treatment) of the same molecule?
The Cell survival rate was 78.71%.

What about the Cell survival rate (H9; H9, II-1 50 µM, Day 1 Treatment) of the same molecule?
The Cell survival rate was 76.96%.

What about the Cell survival rate (H9; H9, II-1 50 µM, Day 3 Treatment) of the same molecule?
Its Cell survival rate is 73.87%.

What about the Cell survival rate (H9; H9, II-1 50 µM, Day 5 Treatment) of the same molecule?
The Cell survival rate was 69.10%.

And the Cell survival rate (H9; H9, II-1 50 µM, Day 7 Treatment)?
Its Cell survival rate is 65.98%.

And the “cell viability, course with time and concentration” value (“cell viability, course” for short) (H9; H9, II-1 10-50 µM, days 1-7)?
The value was “gradual decline in viability”.

What about the Cell survival rate (HEK293; HEK293, II-1 10 µM, Day 1 Treatment) of the same molecule?
Its Cell survival rate is 96.09%.

And the Cell survival rate (HEK293; HEK293, II-1 10 µM, Day 3 Treatment)?
The Cell survival rate was 96.67%.

What about the Cell survival rate (HEK293; HEK293, II-1 10 µM, Day 5 Treatment) of the same molecule?
Its Cell survival rate is 98.80%.

What about the Cell survival rate (HEK293; HEK293, II-1 10 µM, Day 7 Treatment) of the same molecule?
Its Cell survival rate is 99.24%.

And the Cell survival rate (HEK293; HEK293, II-1 30 µM, Day 1 Treatment)?
Its Cell survival rate is 93.69%.

What about the Cell survival rate (HEK293; HEK293, II-1 30 µM, Day 3 Treatment) of the same molecule?
The Cell survival rate was 94.14%.

What about the Cell survival rate (HEK293; HEK293, II-1 30 µM, Day 5 Treatment) of the same molecule?
The Cell survival rate was 94.39%.

And the Cell survival rate (HEK293; HEK293, II-1 30 µM, Day 7 Treatment)?
Its Cell survival rate is 94.97%.

What about the Cell survival rate (HEK293; HEK293, II-1 50 µM, Day 1 Treatment) of the same molecule?
Its Cell survival rate is 80.80%.

And the Cell survival rate (HEK293; HEK293, II-1 50 µM, Day 3 Treatment)?
The Cell survival rate was 90.72%.

And the Cell survival rate (HEK293; HEK293, II-1 50 µM, Day 5 Treatment)?
The Cell survival rate was 92.46%.

And the Cell survival rate (HEK293; HEK293, II-1 50 µM, Day 7 Treatment)?
The Cell survival rate was 93.56%.

And the “cell viability, course” value (HEK293; non-tumor HEK293, II-1 10-50 µM, days 1-7)?
The value was “did not show significant changes”.

And the Cell survival rate (Hela; II-1 10 µM, Day 1 Treatment)?
Its Cell survival rate is 103.32%.

What about the Cell survival rate (Hela; II-1 10 µM, Day 3 Treatment) of the same molecule?
Its Cell survival rate is 98.58%.

And the Cell survival rate (Hela; II-1 10 µM, Day 5 Treatment)?
Its Cell survival rate is 97.35%.

And the Cell survival rate (Hela; II-1 10 µM, Day 7 Treatment)?
The Cell survival rate was 97.27%.

What about the Cell survival rate (Hela; II-1 30 µM, Day 1 Treatment) of the same molecule?
The Cell survival rate was 100.64%.

What about the Cell survival rate (Hela; II-1 30 µM, Day 3 Treatment) of the same molecule?
The Cell survival rate was 93.45%.

What about the Cell survival rate (Hela; II-1 30 µM, Day 5 Treatment) of the same molecule?
Its Cell survival rate is 90.71%.

And the Cell survival rate (Hela; II-1 30 µM, Day 7 Treatment)?
Its Cell survival rate is 85.04%.

What about the Cell survival rate (Hela; II-1 50 µM, Day 1 Treatment) of the same molecule?
Its Cell survival rate is 88.66%.

What about the Cell survival rate (Hela; II-1 50 µM, Day 3 Treatment) of the same molecule?
The Cell survival rate was 81.80%.

And the Cell survival rate (Hela; II-1 50 µM, Day 5 Treatment)?
Its Cell survival rate is 80.31%.

And the Cell survival rate (Hela; II-1 50 µM, Day 7 Treatment)?
Its Cell survival rate is 75.83%.

And the “cell viability, course” value (Hela; II-1 10-50 µM, days 1-7)?
The value was “gradual decrease in cell viability over time”.

What about the Cell survival rate (OVCAR3; OVCAR3, II-1 10 µM, Day 1 Treatment) of the same molecule?
The Cell survival rate was 95.05%.

And the Cell survival rate (OVCAR3; OVCAR3, II-1 10 µM, Day 3 Treatment)?
The Cell survival rate was 98.06%.

What about the Cell survival rate (OVCAR3; OVCAR3, II-1 10 µM, Day 5 Treatment) of the same molecule?
Its Cell survival rate is 96.19%.

And the Cell survival rate (OVCAR3; OVCAR3, II-1 10 µM, Day 7 Treatment)?
Its Cell survival rate is 97.99%.

What about the Cell survival rate (OVCAR3; OVCAR3, II-1 30 µM, Day 1 Treatment) of the same molecule?
Its Cell survival rate is 89.67%.

And the Cell survival rate (OVCAR3; OVCAR3, II-1 30 µM, Day 3 Treatment)?
Its Cell survival rate is 94.18%.

What about the Cell survival rate (OVCAR3; OVCAR3, II-1 30 µM, Day 5 Treatment) of the same molecule?
The Cell survival rate was 92.35%.

What about the Cell survival rate (OVCAR3; OVCAR3, II-1 30 µM, Day 7 Treatment) of the same molecule?
Its Cell survival rate is 90.98%.

What about the Cell survival rate (OVCAR3; OVCAR3, II-1 50 µM, Day 1 Treatment) of the same molecule?
Its Cell survival rate is 88.56%.

And the Cell survival rate (OVCAR3; OVCAR3, II-1 50 µM, Day 3 Treatment)?
The Cell survival rate was 90.37%.

And the Cell survival rate (OVCAR3; OVCAR3, II-1 50 µM, Day 5 Treatment)?
The Cell survival rate was 85.37%.

And the Cell survival rate (OVCAR3; OVCAR3, II-1 50 µM, Day 7 Treatment)?
Its Cell survival rate is 80.83%.

And the “cell viability, course” value (OVCAR3; OVCAR3, II-1 10-50 µM, days 1-7)?
The value was “gradual decrease in cell viability over time”.

What about the Cell survival rate (U251; U251, II-1 10 µM, Day 1 Treatment) of the same molecule?
Its Cell survival rate is 100.75%.

What about the Cell survival rate (U251; U251, II-1 10 µM, Day 3 Treatment) of the same molecule?
The Cell survival rate was 98.96%.

What about the Cell survival rate (U251; U251, II-1 10 µM, Day 5 Treatment) of the same molecule?
Its Cell survival rate is 95.19%.

What about the Cell survival rate (U251; U251, II-1 10 µM, Day 7 Treatment) of the same molecule?
The Cell survival rate was 94.74%.

What about the Cell survival rate (U251; U251, II-1 30 µM, Day 1 Treatment) of the same molecule?
Its Cell survival rate is 99.49%.

What about the Cell survival rate (U251; U251, II-1 30 µM, Day 3 Treatment) of the same molecule?
Its Cell survival rate is 87.01%.

And the Cell survival rate (U251; U251, II-1 30 µM, Day 5 Treatment)?
The Cell survival rate was 79.39%.

And the Cell survival rate (U251; U251, II-1 30 µM, Day 7 Treatment)?
Its Cell survival rate is 74.00%.

What about the Cell survival rate (U251; U251, II-1 50 µM, Day 1 Treatment) of the same molecule?
The Cell survival rate was 98.61%.

What about the Cell survival rate (U251; U251, II-1 50 µM, Day 3 Treatment) of the same molecule?
The Cell survival rate was 85.27%.

And the Cell survival rate (U251; U251, II-1 50 µM, Day 5 Treatment)?
Its Cell survival rate is 70.43%.

And the Cell survival rate (U251; U251, II-1 50 µM, Day 7 Treatment)?
Its Cell survival rate is 63.89%.

And the “cell viability, course” value (U251; U251, II-1 10-50 µM, days 1-7)?
The value was “gradual decrease in cell viability over time”.

— patent publication EP4717694A1, “PYRAZOLFORMYL PIPERAZINONE COMPOUND, PHARMACEUTICAL COMPOSITION AND USE THEREOF” (Iregene Therapeutics Co., Ltd., priority 2023, dated 2024)
